Test: Rab7 GTP binding inhibition, two preparations – biochemical, Rab7 wildtype, bead flow cytometry, two protein sources, mechanism study, late-stage follow-up (AID 720689)
Conditions: GST-Rab7 beads, Bodipy-FL-GTP binding

SMILES: CC1(C)Cc2c(sc(NC(=S)NC(=O)c3ccc(N=[N+]=[N-])cc3)c2C(=O)O)CO1
- EC50 (protein source 1): 219 nM
- EC50 (protein source 2): 205 nM

SMILES: CC1(C)Cc2c(sc(NC(=S)NC(=O)c3cccc(N=[N+]=[N-])c3)c2C(=O)O)CO1
- EC50 (protein source 1): 1260 nM
- EC50 (protein source 2): 1240 nM
